These results are taken from ChEMBL document CHEMBL2203174, “SAR Development of Lysine-Based Irreversible Inhibitors of Transglutaminase 2 for Huntington's Disease” (ACS Med Chem Lett, 2012).

Values after ≈ are worked out from the molar mass of the structure shown. Peptide text beside a SMILES is read from it. * marks the point of attachment. Cbz = O=C(OCc1ccccc1)*; Acryloyl = C=CC(=O)*; OtBu = CC(C)(C)O*

Series [1] is described as follows: Half life in mouse liver microsomes. Type of series: ADME, Microsome.
The nature of series [2]: Apparent permeability of the compound across basolateral to apical side in human Caco2 cells. The class given is ADME, cell-based. Conditions: Caco-2.
A short description of series [3]: Apparent permeability of the compound across apical to basolateral side in human Caco2 cells. The class given is ADME, cell-based. Conditions: Caco-2.
A short description of series [4]: Aqueous solubility of the compound. Type of series: physicochemical. The conditions noted are these: buffer.
For series [5], the target named is T1, Protein-glutamine gamma-glutamyltransferase 2 (Mus musculus, UniProt P21981).
T1 sequence (P21981 whole entry): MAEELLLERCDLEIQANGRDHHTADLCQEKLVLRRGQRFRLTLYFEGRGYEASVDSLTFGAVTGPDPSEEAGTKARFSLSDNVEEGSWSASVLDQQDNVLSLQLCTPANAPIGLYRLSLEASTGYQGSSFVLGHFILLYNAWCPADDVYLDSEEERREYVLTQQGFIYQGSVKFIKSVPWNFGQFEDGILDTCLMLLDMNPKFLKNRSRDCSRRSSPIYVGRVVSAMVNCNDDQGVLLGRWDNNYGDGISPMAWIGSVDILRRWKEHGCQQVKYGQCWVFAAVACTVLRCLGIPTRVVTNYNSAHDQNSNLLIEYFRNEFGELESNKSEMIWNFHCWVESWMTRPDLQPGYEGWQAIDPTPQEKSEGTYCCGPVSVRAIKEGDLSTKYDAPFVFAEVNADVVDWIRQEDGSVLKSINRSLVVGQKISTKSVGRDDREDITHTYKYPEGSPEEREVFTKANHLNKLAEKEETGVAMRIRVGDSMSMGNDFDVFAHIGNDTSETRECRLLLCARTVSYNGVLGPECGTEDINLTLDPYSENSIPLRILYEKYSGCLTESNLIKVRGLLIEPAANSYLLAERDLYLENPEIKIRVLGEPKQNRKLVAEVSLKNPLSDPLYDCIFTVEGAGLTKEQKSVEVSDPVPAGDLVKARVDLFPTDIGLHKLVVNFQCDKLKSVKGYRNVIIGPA
As to the kind of experiment: Inhibition of mouse transglutaminase 2.

Series [6] addresses T2, Protein-glutamine gamma-glutamyltransferase (Homo sapiens, UniProt P21980).
T2 sequence (P21980 whole entry): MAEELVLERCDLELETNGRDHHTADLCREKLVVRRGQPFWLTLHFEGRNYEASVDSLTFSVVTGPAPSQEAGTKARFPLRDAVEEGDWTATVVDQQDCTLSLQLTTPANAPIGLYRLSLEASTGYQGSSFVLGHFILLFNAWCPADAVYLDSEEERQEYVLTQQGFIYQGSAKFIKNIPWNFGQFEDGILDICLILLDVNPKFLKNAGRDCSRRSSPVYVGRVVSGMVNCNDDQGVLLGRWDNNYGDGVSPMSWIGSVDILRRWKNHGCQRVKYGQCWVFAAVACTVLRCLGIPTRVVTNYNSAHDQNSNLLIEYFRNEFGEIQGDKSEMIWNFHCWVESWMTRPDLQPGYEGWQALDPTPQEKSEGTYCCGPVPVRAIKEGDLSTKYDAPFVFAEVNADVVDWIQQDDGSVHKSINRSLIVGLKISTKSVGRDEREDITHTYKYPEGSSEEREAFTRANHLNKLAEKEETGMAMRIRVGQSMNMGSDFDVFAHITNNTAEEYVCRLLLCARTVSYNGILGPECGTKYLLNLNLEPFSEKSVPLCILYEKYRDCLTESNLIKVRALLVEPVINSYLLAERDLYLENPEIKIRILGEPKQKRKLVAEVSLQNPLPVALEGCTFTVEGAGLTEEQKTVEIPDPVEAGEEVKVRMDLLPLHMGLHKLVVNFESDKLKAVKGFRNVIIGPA
As to the kind of experiment: Irreversible inhibition of transglutaminase 2.

Series [7] in a line: Apparent permeability of the compound across apical to basolateral side in wild type MDCK cells at 10 uM. The class given is ADME, cell-based, Canis lupus familiaris. The conditions noted are these: dog.
The next series deals with MDR1. As to the kind of experiment: Efflux ratio of permeability in MDCK cells expressing MDR1 at 10 uM. The conditions noted are these: dog. The class given is ADME, cell-based, Canis lupus familiaris.
A short description of series [8]: Intrinsic clearance in human liver microsomes at 1 uM by LC-MS/MS analysis. The class given is ADME, Microsome. The conditions noted are these: read-out: CLH.
Series [9] in a line: Intrinsic clearance in mouse liver microsomes at 1 uM by LC-MS/MS analysis. The conditions noted are these: read-out: CLH. Type of series: ADME, Microsome.
Series [10] is described as follows: Half life in mouse plasma at 1 uM by LC-MS/MS analysis. Type of series: ADME, cell-free.
A short description of series [11]: Half life in human plasma at 1 uM by LC-MS/MS analysis. Type of series: ADME, cell-free.
Series [12] in a line: Ratio of IC50 for mouse transglutaminase 2 to IC50 for human transglutaminase 2.
Series [13] in a line: Kinetic solubility of the compound in PBS at pH 7.4 by LC-UV analysis. The class given is physicochemical. The conditions noted are these: read-out: Kinetic_solubility.

Compound `C=CC(=O)NCCCC[C@H](NC(=O)OCc1ccccc1)C(=O)NCC(=O)OC(C)(C)C` (Cbz-Lys(Acryloyl)-Gly-OtBu) displayed a half-life in series [1] of 7 min. In addition, the Papp B→A in [2] turned out to be 25 ×10⁻⁶ cm/s. Besides, in series [3], the Papp A→B was found to be 7.5 ×10⁻⁶ cm/s. In addition, the concentration in solution in series [4] (solubility) was 1490 µg/mL (≈ 3330 µM). In addition, the half-inhibitory concentration (IC50) is 6200 nM in [5] and 3100 nM in [6].

Regarding `C=CC(=O)NCCCC[C@H](NC(=O)OCc1ccccc1)C(=O)N1CCN(c2ccccc2Cl)CC1`, in series [7], the apical-to-basolateral permeability (Papp A→B) at 10 µM came to 30.3 ×10⁻⁶ cm/s. In addition, the efflux ratio at 10 µM with MDR1 amounted to 7.1. Moreover, the microsomal CLint at 1 µM in series [8] and in [9] was over 1390 µL/min/mg each time. The half-life at 1 µM in series [10] and in series [11] was over 8 h in each case. Besides, the Ratio IC50 in series [12] was 2. Also, in series [13], the solubility kinetic amounted to 60 µg/mL (≈ 117 µM). The same compound registered an IC50 in series [6] of 62 nM.

In the case of `C=CC(=O)NCCCC[C@H](NC(=O)Cc1ccccc1)C(=O)N1CCN(c2cccc(C)n2)CC1`, the Papp A→B at 10 µM in series [7] came out at 14.2 ×10⁻⁶ cm/s. Moreover, the efflux ratio at 10 µM in the series on MDR1 was determined as 118. The microsomal CLint at 1 µM in series [8] was over 1390 µL/min/mg. Also, the half-life at 1 µM in [10] and in series [11] was over 24 h each time. For the same compound, the solubility kinetic in series [13] came out at 870 µg/mL (≈ 1820 µM). The compound also showed an IC50 in series [6] of 14 nM.
